# PMC10322960 (European Journal of Drug Metabolism and Pharmacokinetics, 2023)
# “Also recorded” adds a separate entry of the source.
# Assays:
# MATE2-K = MATE2-K (Homo sapiens, UniProt Q86VL8); assay: MATE2-K uptake substrate assay; assay type: in vitro ADME
# human liver microsomes = assay: Human liver microsome incubation with or without chemical enzyme inhibitors; assay type: in vitro ADME
# MDR1 = MDR1 (Homo sapiens, UniProt P08183); assay: MDR1 vesicular transport inhibition assay; assay type: in vitro ADME
# Chain of MDR1 (P08183 whole entry): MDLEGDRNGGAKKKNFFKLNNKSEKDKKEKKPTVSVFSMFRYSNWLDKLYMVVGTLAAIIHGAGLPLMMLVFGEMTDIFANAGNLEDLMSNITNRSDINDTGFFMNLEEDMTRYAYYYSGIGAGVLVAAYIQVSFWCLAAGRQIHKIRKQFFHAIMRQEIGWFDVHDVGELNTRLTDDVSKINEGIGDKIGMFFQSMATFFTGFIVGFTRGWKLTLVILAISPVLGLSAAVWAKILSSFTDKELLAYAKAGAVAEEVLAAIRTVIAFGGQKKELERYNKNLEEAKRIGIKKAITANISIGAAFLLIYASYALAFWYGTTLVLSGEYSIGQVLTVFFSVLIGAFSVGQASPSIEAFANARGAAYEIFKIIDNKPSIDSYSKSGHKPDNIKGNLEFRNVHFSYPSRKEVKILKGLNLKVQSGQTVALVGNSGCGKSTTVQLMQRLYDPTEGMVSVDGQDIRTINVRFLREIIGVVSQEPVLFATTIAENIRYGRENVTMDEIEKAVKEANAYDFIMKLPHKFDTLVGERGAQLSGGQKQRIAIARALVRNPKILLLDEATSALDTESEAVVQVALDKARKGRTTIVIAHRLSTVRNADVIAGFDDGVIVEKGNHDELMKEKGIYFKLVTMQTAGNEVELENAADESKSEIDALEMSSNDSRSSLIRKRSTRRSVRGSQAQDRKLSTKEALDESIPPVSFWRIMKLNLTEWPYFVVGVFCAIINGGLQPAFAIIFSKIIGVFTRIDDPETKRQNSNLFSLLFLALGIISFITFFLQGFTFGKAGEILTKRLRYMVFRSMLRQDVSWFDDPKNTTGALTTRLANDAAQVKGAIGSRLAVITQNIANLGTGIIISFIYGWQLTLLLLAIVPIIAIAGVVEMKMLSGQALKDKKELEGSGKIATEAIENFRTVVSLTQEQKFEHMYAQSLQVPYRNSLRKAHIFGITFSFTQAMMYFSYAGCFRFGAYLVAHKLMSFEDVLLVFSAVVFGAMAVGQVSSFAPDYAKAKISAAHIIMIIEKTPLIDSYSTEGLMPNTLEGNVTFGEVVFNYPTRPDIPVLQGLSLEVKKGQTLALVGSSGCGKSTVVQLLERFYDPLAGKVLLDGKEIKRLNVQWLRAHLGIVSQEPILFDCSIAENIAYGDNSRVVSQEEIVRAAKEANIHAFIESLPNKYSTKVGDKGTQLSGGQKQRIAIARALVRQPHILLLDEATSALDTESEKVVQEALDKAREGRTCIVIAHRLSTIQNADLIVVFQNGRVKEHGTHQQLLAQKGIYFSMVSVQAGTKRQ
# OCT2 [1] = target: T1, OCT2 (Homo sapiens, UniProt O15244); assay: OCT2 uptake substrate assay; assay type: in vitro ADME
# T1 sequence (O15244 1-555): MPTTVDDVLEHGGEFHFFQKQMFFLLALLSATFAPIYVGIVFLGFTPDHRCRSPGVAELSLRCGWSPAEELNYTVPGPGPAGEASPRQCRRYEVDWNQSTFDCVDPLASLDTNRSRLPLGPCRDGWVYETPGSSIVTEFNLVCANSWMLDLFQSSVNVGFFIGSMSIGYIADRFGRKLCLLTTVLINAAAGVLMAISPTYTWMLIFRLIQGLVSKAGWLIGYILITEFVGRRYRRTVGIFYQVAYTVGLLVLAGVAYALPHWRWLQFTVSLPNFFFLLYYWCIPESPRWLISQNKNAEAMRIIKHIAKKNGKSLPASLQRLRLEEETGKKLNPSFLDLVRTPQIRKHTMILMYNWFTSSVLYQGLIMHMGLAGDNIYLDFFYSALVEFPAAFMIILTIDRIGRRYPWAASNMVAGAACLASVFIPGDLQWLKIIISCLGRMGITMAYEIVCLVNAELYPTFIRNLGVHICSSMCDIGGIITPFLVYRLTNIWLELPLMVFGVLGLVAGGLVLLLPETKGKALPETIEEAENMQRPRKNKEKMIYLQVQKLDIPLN
# OAT3 [2] = target: T2, OAT3 (Homo sapiens, UniProt Q8TCC7); assay: OAT3 uptake substrate assay; assay type: in vitro ADME
# T2 sequence (Q8TCC7 1-542): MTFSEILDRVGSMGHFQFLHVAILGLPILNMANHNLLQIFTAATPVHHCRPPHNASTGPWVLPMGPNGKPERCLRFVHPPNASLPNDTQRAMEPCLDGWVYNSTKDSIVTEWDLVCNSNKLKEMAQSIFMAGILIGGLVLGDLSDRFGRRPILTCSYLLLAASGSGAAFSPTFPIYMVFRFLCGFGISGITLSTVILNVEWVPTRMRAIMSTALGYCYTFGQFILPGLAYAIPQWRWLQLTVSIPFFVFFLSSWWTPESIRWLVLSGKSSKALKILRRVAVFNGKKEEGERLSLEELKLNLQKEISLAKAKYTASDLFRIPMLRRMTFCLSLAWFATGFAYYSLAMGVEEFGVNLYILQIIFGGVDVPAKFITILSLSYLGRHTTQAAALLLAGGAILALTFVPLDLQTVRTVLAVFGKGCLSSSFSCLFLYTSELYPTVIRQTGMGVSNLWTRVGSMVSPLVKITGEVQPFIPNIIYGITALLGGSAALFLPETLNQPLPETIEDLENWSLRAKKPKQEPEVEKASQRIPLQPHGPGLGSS
# [3] = Phase 1 clinical drug–drug interaction study, safety assessment; assay type: in vivo, human
# CYP2C19 = CYP2C19 (Homo sapiens, UniProt P33261); assay: In vitro P450 inhibition, recombinant CYP2C19; assay type: in vitro ADME
# Chain of CYP2C19 (P33261 whole entry): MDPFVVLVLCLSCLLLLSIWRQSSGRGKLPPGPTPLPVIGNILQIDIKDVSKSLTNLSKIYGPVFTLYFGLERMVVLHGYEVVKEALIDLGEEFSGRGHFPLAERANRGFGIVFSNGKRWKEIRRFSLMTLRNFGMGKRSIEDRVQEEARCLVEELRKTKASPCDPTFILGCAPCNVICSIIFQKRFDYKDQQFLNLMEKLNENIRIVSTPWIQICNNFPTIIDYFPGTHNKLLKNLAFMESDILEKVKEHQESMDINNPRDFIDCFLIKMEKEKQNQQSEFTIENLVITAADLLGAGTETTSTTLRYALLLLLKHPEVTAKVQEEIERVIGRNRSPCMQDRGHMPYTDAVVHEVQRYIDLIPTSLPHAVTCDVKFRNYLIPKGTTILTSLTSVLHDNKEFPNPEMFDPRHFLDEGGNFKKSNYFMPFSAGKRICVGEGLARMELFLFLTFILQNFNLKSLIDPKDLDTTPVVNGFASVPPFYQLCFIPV
# BCRP = target: T3, BCRP (Homo sapiens, UniProt Q9UNQ0); assay: BCRP monolayer substrate assay; assay type: in vitro ADME
# T3 sequence (Q9UNQ0 1-655): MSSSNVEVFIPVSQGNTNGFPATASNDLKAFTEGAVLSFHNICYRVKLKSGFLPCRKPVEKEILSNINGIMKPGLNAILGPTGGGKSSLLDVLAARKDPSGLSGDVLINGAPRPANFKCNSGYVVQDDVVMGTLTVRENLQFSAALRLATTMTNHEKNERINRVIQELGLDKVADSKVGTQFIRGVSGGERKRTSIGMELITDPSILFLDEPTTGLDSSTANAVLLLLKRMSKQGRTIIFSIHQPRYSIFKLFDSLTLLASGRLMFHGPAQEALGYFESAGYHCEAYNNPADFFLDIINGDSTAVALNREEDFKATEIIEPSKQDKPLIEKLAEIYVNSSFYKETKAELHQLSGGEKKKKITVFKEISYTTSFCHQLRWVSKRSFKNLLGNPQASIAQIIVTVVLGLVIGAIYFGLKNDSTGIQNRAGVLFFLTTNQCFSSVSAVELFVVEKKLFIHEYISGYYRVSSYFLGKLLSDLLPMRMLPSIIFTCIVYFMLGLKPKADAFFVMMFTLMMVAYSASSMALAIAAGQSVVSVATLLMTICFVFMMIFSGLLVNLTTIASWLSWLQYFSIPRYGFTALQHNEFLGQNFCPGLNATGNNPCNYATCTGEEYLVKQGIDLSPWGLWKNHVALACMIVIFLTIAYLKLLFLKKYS
# [4] = Phase 1 clinical drug–drug interaction study, plasma pharmacokinetics; assay type: in vivo, human
# OAT3 [5] = target: T2, OAT3; assay: OAT3 uptake inhibition assay; assay type: in vitro ADME; conditions: 0.63–40 μM
# OCT2 [6] = target: T1, OCT2; assay: OCT2 uptake inhibition assay; assay type: in vitro ADME; conditions: 0.63–40 μM
# [7] = transporter-expressing vs control cells, 0.04–40 µm
# [8] = Cohort 2, 12 subjects, mild in severity
# [9] = rifampin cohort, 12 participants
# [10] = ocedurenone + itraconazole (test) vs ocedurenone alone (reference), Cohort 1
# [11] = ocedurenone + rifampin (test) vs ocedurenone alone (reference), Cohort 2
# Chain of MATE2-K (Q86VL8 1-566 isoform Q86VL8-3): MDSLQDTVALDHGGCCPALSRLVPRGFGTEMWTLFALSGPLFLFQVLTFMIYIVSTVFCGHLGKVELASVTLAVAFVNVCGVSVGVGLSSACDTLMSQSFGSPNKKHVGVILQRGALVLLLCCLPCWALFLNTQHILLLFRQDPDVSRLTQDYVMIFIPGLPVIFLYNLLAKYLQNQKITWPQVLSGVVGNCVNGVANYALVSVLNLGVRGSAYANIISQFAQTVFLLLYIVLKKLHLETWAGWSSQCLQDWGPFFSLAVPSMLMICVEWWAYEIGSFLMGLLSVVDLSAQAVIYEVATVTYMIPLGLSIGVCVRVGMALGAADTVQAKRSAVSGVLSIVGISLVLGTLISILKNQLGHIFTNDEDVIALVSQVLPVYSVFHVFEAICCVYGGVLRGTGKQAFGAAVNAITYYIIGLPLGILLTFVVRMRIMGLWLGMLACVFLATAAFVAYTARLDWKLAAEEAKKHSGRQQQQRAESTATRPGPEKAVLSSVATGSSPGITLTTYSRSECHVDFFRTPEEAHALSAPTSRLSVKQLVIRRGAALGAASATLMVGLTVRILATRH
structure (smiles),measurement,setting,value
"N#Cc1ccc(N2N=C3c4ccc(C(=O)N5CCC(O)CC5)nc4CC[C@@H]3[C@@H]2C2CCCC2)cc1Cl [Ocedurenone, ocedurenone]","Substrate, MATE2-K UPT",MATE2-K,not likely to be a substrate
same,"Maximum fold accumulation, MATE2-K UPT",MATE2-K; [7],< 2
same,stability in human hepatic microsomes,human liver microsomes,stable
same,ocedurenone metabolism in HLM with chemical inhibitor added,"human liver microsomes; 1-aminobenzotriazole or ketoconazole added separately, 3 µm ocedurenone",inhibited
same,inhibition of MDR1 at 40 µM,"MDR1; first vesicular transport run, 40 µM",99%
same,IC50,"MDR1; read-out: Inhibition results (IC50), MDR1 VT, probe NMQ (1 µm)",2500 nM
same,maximum inhibition of MDR1-mediated transport,MDR1; repeat with 7 concentrations,100%
same,"Substrate, OCT2 UPT",OCT2 [1],not likely to be a substrate
same,"Maximum fold accumulation, OCT2 UPT",OCT2 [1]; [7],1.0
same,"Substrate, OAT3 UPT",OAT3 [2],not likely to be a substrate
same,"Maximum fold accumulation, OAT3 UPT",OAT3 [2]; [7],< 2
same,treatment-emergent AEs considered related to ocedurenone,"[3]; Cohort 1 (itraconazole cohort), 12 subjects",No treatment-emergent AEs; also recorded: no treatment-emergent adverse events
same,number of treatment-emergent AEs considered related to the drug,[3]; [8],5
same,subjects with treatment-emergent AEs considered related to the drug,[3]; [8],25.0%
same,participants with headache (TEAE related to ocedurenone),[3]; [9],16.7%
same,participants with hyperhidrosis (TEAE related to ocedurenone),[3]; [9],8.3%
same,participants with nausea (TEAE related to ocedurenone),[3]; [9],8.3%
same,participants with nervousness (TEAE related to ocedurenone),[3]; [9],8.3%
same,tolerability,"[3]; single 0.5-mg dose alone and with itraconazole or rifampin, healthy participants",safe and well-tolerated
same,percent remaining activity of CYP2C19,CYP2C19; ocedurenone at 200 μM,78.5%
same,IC50,"CYP2C19; read-out: IC50 CYP2C19, recombinant CYP",> 200000 nM
same,inhibition category CYP2C19,CYP2C19; recombinant enzyme,little or no inhibition
same,"Substrate, BCRP ML",BCRP,likely a substrate
same,"geometric least squares mean ratio (test:reference) and 90% CI, AUC0-inf",[4]; [10],"199.5 (182.3, 218.3)"
same,"geometric least squares mean ratio (test:reference) and 90% CI, AUClast",[4]; [10],"161.0 (152.3, 170.3)"
same,"geometric least squares mean ratio (test:reference) and 90% CI, Cmax",[4]; [10],"107.4 (103.2, 111.8)"
same,"geometric least squares mean ratio (test:reference) and 90% CI, AUC0-inf",[4]; [11],"17.2 (16.2, 18.2)"
same,"geometric least squares mean ratio (test:reference) and 90% CI, AUClast",[4]; [11],"17.5 (16.6, 18.5)"
same,"geometric least squares mean ratio (test:reference) and 90% CI, Cmax",[4]; [11],"73.4 (69.5, 77.5)"
same,effect of rifampin on ocedurenone pharmacokinetics (interaction class),[4]; strong CYP3A4 inducer rifampin,strong (> 5-fold)
same,effect of itraconazole on ocedurenone exposure (interaction class),[4]; strong CYP3A inhibitor itraconazole,weak (1.25- to 2-fold)
same,interaction with human OAT3 transporter (inhibition),OAT3 [5],No interaction
same,interaction with human OCT2 transporter (inhibition),OCT2 [6],No interaction
